What all share (assay type): functional
Assay [1] concerns the target Proto-oncogene tyrosine-protein kinase Src (Homo sapiens, UniProt P12931). Nature of the assay: Inhibitory activity against Src protein tyrosine kinase SH2 domain.
Assay [2] in a line: Inhibitory activity against SH2 domain of PI3-kinase p85.
Assay [3] deals with T1, Tyrosine-protein phosphatase non-receptor type 11 (Homo sapiens, UniProt Q06124).
T1 sequence (Q06124 whole entry): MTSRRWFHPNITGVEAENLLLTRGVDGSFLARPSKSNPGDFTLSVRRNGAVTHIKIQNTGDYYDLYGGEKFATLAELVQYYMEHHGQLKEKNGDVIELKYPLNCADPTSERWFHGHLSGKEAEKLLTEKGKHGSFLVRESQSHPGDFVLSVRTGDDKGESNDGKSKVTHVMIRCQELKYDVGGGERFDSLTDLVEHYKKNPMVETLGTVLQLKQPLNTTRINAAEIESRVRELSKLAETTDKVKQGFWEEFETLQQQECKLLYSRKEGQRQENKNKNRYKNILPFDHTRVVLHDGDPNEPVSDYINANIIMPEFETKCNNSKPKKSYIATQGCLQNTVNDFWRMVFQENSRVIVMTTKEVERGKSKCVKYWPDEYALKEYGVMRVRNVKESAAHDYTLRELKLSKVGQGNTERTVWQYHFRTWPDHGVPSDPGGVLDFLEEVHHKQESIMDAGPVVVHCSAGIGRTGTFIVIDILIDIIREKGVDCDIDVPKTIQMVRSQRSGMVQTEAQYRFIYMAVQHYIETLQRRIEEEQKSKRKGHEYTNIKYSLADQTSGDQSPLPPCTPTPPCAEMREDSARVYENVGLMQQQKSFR
Nature of the assay: Inhibitory activity against SH2 domain of SH-PTP2 (N-terminal) binding.

Assay [4] addresses Growth factor receptor-bound protein 2 (Homo sapiens, UniProt P62993). Nature of the assay: Inhibition of binding to Growth factor receptor bound protein 2 SH2 domain.

Square brackets hold non-standard residues; d marks the D form. Peptide text beside a SMILES is read from it. * marks the point of attachment. pY = N[C@@H](Cc1ccc(OP(=O)(O)O)cc1)C(=O)O; X1 = O=C(O)C(C(=O)O)*

Proto-oncogene tyrosine-protein kinase Src, sequence (P12931 2-536 limits assumed): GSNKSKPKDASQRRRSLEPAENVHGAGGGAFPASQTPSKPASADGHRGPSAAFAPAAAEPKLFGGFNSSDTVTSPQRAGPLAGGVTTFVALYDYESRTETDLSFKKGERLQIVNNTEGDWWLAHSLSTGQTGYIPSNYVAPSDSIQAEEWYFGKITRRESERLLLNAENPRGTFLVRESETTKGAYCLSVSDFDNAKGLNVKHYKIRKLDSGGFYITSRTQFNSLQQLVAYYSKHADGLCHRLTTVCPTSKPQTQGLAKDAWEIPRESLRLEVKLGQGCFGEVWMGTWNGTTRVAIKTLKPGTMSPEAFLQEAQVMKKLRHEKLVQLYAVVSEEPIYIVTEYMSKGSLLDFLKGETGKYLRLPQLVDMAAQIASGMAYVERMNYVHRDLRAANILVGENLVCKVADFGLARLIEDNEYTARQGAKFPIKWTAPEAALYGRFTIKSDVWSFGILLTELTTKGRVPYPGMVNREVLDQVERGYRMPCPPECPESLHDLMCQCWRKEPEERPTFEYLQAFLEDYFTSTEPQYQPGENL
Growth factor receptor-bound protein 2, sequence (P62993 whole entry, the tested form may be a part): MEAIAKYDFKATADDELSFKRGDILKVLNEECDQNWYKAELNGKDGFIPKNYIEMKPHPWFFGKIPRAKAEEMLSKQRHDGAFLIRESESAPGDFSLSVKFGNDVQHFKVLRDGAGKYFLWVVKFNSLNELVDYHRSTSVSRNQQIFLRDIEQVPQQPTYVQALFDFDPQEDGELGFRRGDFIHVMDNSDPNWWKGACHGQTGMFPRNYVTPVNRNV

With `CC[C@H](C)[C@H](NC(=O)[C@H](CCC(=O)O)NC(=O)[C@H](CCC(=O)O)NC(=O)[C@H](Cc1ccc(OP(=O)(O)O)cc1)NC(=O)[C@H](CCC(N)=O)NC(C)=O)C(=O)N1CCC[C@H]1C(N)=O`, the IC50 in assay [1] is 3.2 µM. `CC[C@H](C)[C@H](NC(=O)[C@H](CCC(=O)O)NC(=O)[C@H](CCC(=O)O)NC(=O)[C@H](Cc1ccc(OC(C(=O)O)C(=O)O)cc1)NC(=O)[C@H](CCC(N)=O)NC(C)=O)C(=O)N1CCC[C@H]1C(N)=O` registered an IC50 in assay [1] of 25 µM. `CC[C@H](C)[C@H](NC(=O)[C@H](CCC(=O)O)NC(=O)[C@H](Cc1ccc(OC(C(=O)O)C(=O)O)cc1)NC(=O)[C@H](Cc1ccc(OC(C(=O)O)C(=O)O)cc1)NC(=O)[C@H](CCC(N)=O)NC(C)=O)C(=O)N1CCC[C@H]1C(N)=O` displayed an IC50 in assay [1] of 22.8 µM. This IC50 and that of the compound before are within 1.5-fold of each other.

The compound `CSCC[C@H](NC(=O)[C@@H]1CCCN1C(=O)[C@@H](NC(=O)[C@H](Cc1ccc(OC(C(=O)O)C(=O)O)cc1)NC(=O)[C@H](CC(=O)O)NC(C)=O)C(C)C)C(=O)N[C@@H](CC(C)C)C(N)=O` (Ac-DY(X1)VPML-NH2) registered an IC50 in assay [2] of 14.2 µM.

As for `CSCC[C@H](NC(=O)[C@@H]1CCCN1C(=O)[C@@H](NC(=O)[C@H](Cc1ccc(OP(=O)(O)O)cc1)NC(=O)[C@H](CC(=O)O)NC(C)=O)C(C)C)C(=O)N[C@@H](CC(C)C)C(N)=O` (Ac-D[pY]VPML-NH2), the IC50 in assay [2] was 0.15 µM. This IC50 lies about 95-fold lower than the previous one. As for `CC[C@H](C)[C@H](NC(=O)[C@H](Cc1ccc(OC(C(=O)O)C(=O)O)cc1)NC(=O)[C@H](CC(N)=O)NC(=O)[C@H](CC(C)C)NC(C)=O)C(=O)N[C@@H](CC(=O)O)C(=O)N[C@@H](CC(C)C)C(=O)N[C@@H](CC(=O)O)C(=O)N[C@@H](CC(C)C)C(=O)N[C@H](C(N)=O)C(C)C` (Ac-LNY(X1)IDLDLV-NH2), the half-inhibitory concentration (IC50) in assay [3] worked out at 22 µM.

Compound `CC[C@H](C)[C@H](NC(=O)[C@H](Cc1ccc(OP(=O)(O)O)cc1)NC(=O)[C@H](CC(N)=O)NC(=O)[C@H](CC(C)C)NC(C)=O)C(=O)N[C@@H](CC(=O)O)C(=O)N[C@@H](CC(C)C)C(=O)N[C@@H](CC(=O)O)C(=O)N[C@@H](CC(C)C)C(=O)N[C@H](C(N)=O)C(C)C` (Ac-LN[pY]IDLDLV-NH2) gave an IC50 in assay [3] of 1.54 µM.

With `CC[C@H](C)[C@H](NC(=O)[C@H](CC(N)=O)NC(=O)[C@@H](NC(=O)[C@H](Cc1ccc(OC(C(=O)O)C(=O)O)cc1)NC(=O)[C@H](CC(N)=O)NC(C)=O)C(C)C)C(=O)N[C@@H](CCC(=O)O)C(N)=O` (Ac-NY(X1)VNIE-NH2), the IC50 in assay [4] was determined as 120 µM. For the compound `CC[C@H](C)[C@H](NC(=O)[C@H](CC(N)=O)NC(=O)[C@@H](NC(=O)[C@H](Cc1ccc(OP(=O)(O)O)cc1)NC(=O)[C@H](CC(N)=O)NC(C)=O)C(C)C)C(=O)N[C@@H](CCC(=O)O)C(N)=O` (Ac-N[pY]VNIE-NH2), in assay [4], the IC50 turned out to be 0.9 µM.

One may read the IC50 as the midpoint of a concentration-inhibition curve. Low readings indicate greater potency in that assay, high ones weaker potency in that assay.

The values above are taken from ChEMBL document CHEMBL1128327, “L-O-(2-malonyl)tyrosine: a new phosphotyrosyl mimetic for the preparation of Src homology 2 domain inhibitory peptides” (J Med Chem, 1995).
